Organism: Rattus norvegicus
Test: DrugMatrix - Regimen: Daily Repeat
Type: toxicity, organism-based, Sprague-Dawley
Set-up: regimen Daily Repeat, gender Male, age 6-8 weeks
Settings: in vivo, po, route oral GAVAGE, vehicle 100 % WATER; for CREATININE / GLUCOSE / LACTATE DEHYDROGENASE / LIPASE / PHOSPHORUS / POTASSIUM / SODIUM / TOTAL BILIRUBIN / TOTAL PROTEIN / URIC ACID / ALANINE AMINOTRANSFERASE / ALBUMIN / ALKALINE PHOSPHATASE / ASPARTATE AMINOTRANSFERASE / BLOOD UREA NITROGEN / CARBON DIOXIDE / CHLORIDE / CHOLESTEROL / CREATINE PHOSPHOKINASE: tissue Plasma; for ABSOLUTE BASOPHIL / ABSOLUTE EOSINOPHIL / ABSOLUTE LYMPHOCYTE / ABSOLUTE MONOCYTE / ABSOLUTE SEGMENTED NEUTROPHIL / BASOPHIL / EOSINOPHIL / ERYTHROCYTE COUNT / HEMATOCRIT / HEMOGLOBIN / LEUKOCYTE COUNT / LYMPHOCYTE / MEAN CORPUSCULAR HEMOGLOBIN / MEAN CORPUSCULAR HEMOGLOBIN CONCENTRATION / MEAN CORPUSCULAR VOLUME / MONOCYTE / NEUTROPHIL / NUCLEATED RED BLOOD CELLS / PLATELET COUNT: tissue Blood
[1] = 25 mg/kg, 120 h, dose level Low, time 5 day
[2] = 54 mg/kg, 72 h, dose level High, time 3 day
[3] = 54 mg/kg, 120 h, dose level High, time 5 day
[4] = 80 mg/kg, 72 h, dose level High, time 3 day
[5] = 80 mg/kg, 120 h, dose level High, time 5 day

CCC1(c2ccccc2)C(=O)NC(=O)NC1=O [PHENOBARBITAL]
CREATININE [1]: 0.15 mg/dL | GLUCOSE [1]: 135.67 mg/dL | LACTATE DEHYDROGENASE [1]: 131 u/L | LIPASE [1]: 9.33 u/L | PHOSPHORUS [1]: 11 mg/dL | POTASSIUM [1]: 6.37 MEQ/L | SODIUM [1]: 145.53 MEQ/L | TOTAL BILIRUBIN [1]: 0.17 mg/dL | TOTAL PROTEIN [1]: 6.23 G/DL | URIC ACID [1]: 0.7 mg/dL | ABSOLUTE BASOPHIL [2]: 0 CELLS/uL | ABSOLUTE EOSINOPHIL [2]: 0 CELLS/uL | ABSOLUTE LYMPHOCYTE [2]: 6613.67 CELLS/uL | ABSOLUTE MONOCYTE [2]: 76.67 CELLS/uL | ABSOLUTE SEGMENTED NEUTROPHIL [2]: 1009.67 CELLS/uL | BASOPHIL [2]: 0% | EOSINOPHIL [2]: 0% | ERYTHROCYTE COUNT [2]: 5.6 x10E6/uL | HEMATOCRIT [2]: 34.33% | HEMOGLOBIN [2]: 13.17 G/DL | LEUKOCYTE COUNT [2]: 7.7 x10E3/uL | LYMPHOCYTE [2]: 86% | MEAN CORPUSCULAR HEMOGLOBIN [2]: 23.53 pg | MEAN CORPUSCULAR HEMOGLOBIN CONCENTRATION [2]: 38.37 G/DL | MEAN CORPUSCULAR VOLUME [2]: 61.37 fL | MONOCYTE [2]: 1% | NEUTROPHIL [2]: 13% | NUCLEATED RED BLOOD CELLS [2]: 0 /100WBC | PLATELET COUNT [2]: 1130.67 x10E3/uL | ALANINE AMINOTRANSFERASE [2]: 66.33 u/L | ALBUMIN [2]: 3.9 G/DL | ALKALINE PHOSPHATASE [2]: 296.33 u/L | ASPARTATE AMINOTRANSFERASE [2]: 99.33 u/L | BLOOD UREA NITROGEN [2]: 16.33 mg/dL | CARBON DIOXIDE [2]: 35.67 mmol/L | CHLORIDE [2]: 98.5 MEQ/L | CHOLESTEROL [2]: 85.67 mg/dL | CREATINE PHOSPHOKINASE [2]: 643 u/L | CREATININE [2]: 0.14 mg/dL | GLUCOSE [2]: 132.33 mg/dL | LACTATE DEHYDROGENASE [2]: 152.67 u/L | LIPASE [2]: 11 u/L | PHOSPHORUS [2]: 10.93 mg/dL | POTASSIUM [2]: 5.81 MEQ/L | SODIUM [2]: 144.8 MEQ/L | TOTAL BILIRUBIN [2]: 0.2 mg/dL | TOTAL PROTEIN [2]: 5.87 G/DL | URIC ACID [2]: 0.63 mg/dL | ABSOLUTE BASOPHIL [3]: 0 CELLS/uL | ABSOLUTE EOSINOPHIL [3]: 0 CELLS/uL | ABSOLUTE LYMPHOCYTE [3]: 8394.67 CELLS/uL | ABSOLUTE MONOCYTE [3]: 27.33 CELLS/uL | ABSOLUTE SEGMENTED NEUTROPHIL [3]: 1011.33 CELLS/uL | BASOPHIL [3]: 0% | EOSINOPHIL [3]: 0% | ERYTHROCYTE COUNT [3]: 5.14 x10E6/uL | HEMATOCRIT [3]: 32.97% | HEMOGLOBIN [3]: 12.8 G/DL | LEUKOCYTE COUNT [3]: 9.43 x10E3/uL | LYMPHOCYTE [3]: 89.33% | MEAN CORPUSCULAR HEMOGLOBIN [3]: 24.87 pg | MEAN CORPUSCULAR HEMOGLOBIN CONCENTRATION [3]: 38.83 G/DL | MEAN CORPUSCULAR VOLUME [3]: 64.1 fL | MONOCYTE [3]: 0.33% | NEUTROPHIL [3]: 10.33% | NUCLEATED RED BLOOD CELLS [3]: 0 /100WBC | PLATELET COUNT [3]: 1251 x10E3/uL | ALANINE AMINOTRANSFERASE [3]: 51 u/L | ALBUMIN [3]: 4.2 G/DL | ALKALINE PHOSPHATASE [3]: 333.33 u/L | ASPARTATE AMINOTRANSFERASE [3]: 88.33 u/L | BLOOD UREA NITROGEN [3]: 18.33 mg/dL | CARBON DIOXIDE [3]: 32.67 mmol/L | CHLORIDE [3]: 100.67 MEQ/L | CHOLESTEROL [3]: 84 mg/dL | CREATINE PHOSPHOKINASE [3]: 245.33 u/L | CREATININE [3]: 0.16 mg/dL | GLUCOSE [3]: 134.67 mg/dL | LACTATE DEHYDROGENASE [3]: 129.33 u/L | LIPASE [3]: 9.67 u/L | PHOSPHORUS [3]: 10.53 mg/dL | POTASSIUM [3]: 6.17 MEQ/L | SODIUM [3]: 145.07 MEQ/L | TOTAL BILIRUBIN [3]: 0.2 mg/dL | TOTAL PROTEIN [3]: 6.4 G/DL | URIC ACID [3]: 0.8 mg/dL | BASOPHIL [4]: 0.45% | EOSINOPHIL [4]: 0.45% | ERYTHROCYTE COUNT [4]: 7.21 x10E6/uL | HEMATOCRIT [4]: 44% | HEMOGLOBIN [4]: 13.8 G/DL | LEUKOCYTE COUNT [4]: 13.79 x10E3/uL | LYMPHOCYTE [4]: 79.7% | MEAN CORPUSCULAR HEMOGLOBIN [4]: 19.15 pg | MEAN CORPUSCULAR HEMOGLOBIN CONCENTRATION [4]: 31.35 G/DL | MEAN CORPUSCULAR VOLUME [4]: 61.05 fL | MONOCYTE [4]: 2.35% | NEUTROPHIL [4]: 15.8% | PLATELET COUNT [4]: 1419.5 x10E3/uL | ALANINE AMINOTRANSFERASE [4]: 37.33 u/L | ALBUMIN [4]: 3.43 G/DL | ALKALINE PHOSPHATASE [4]: 281 u/L | ASPARTATE AMINOTRANSFERASE [4]: 57 u/L | BLOOD UREA NITROGEN [4]: 12.33 mg/dL | CHLORIDE [4]: 103 MEQ/L | CHOLESTEROL [4]: 84.33 mg/dL | CREATINE PHOSPHOKINASE [4]: 205.33 u/L | CREATININE [4]: 0.37 mg/dL | GLUCOSE [4]: 185 mg/dL | PHOSPHORUS [4]: 13.43 mg/dL | POTASSIUM [4]: 6.63 MEQ/L | SODIUM [4]: 147 MEQ/L | TOTAL BILIRUBIN [4]: 0.43 mg/dL | TOTAL PROTEIN [4]: 5.8 G/DL | BASOPHIL [5]: 0.43% | EOSINOPHIL [5]: 0.4% | ERYTHROCYTE COUNT [5]: 6.51 x10E6/uL | HEMATOCRIT [5]: 40.63% | HEMOGLOBIN [5]: 13.03 G/DL | LEUKOCYTE COUNT [5]: 13 x10E3/uL | LYMPHOCYTE [5]: 81.9% | MEAN CORPUSCULAR HEMOGLOBIN [5]: 20.1 pg | MEAN CORPUSCULAR HEMOGLOBIN CONCENTRATION [5]: 32.13 G/DL | MEAN CORPUSCULAR VOLUME [5]: 62.43 fL | MONOCYTE [5]: 2.6% | NEUTROPHIL [5]: 13.63% | PLATELET COUNT [5]: 1415.67 x10E3/uL | ALANINE AMINOTRANSFERASE [5]: 40.33 u/L | ALBUMIN [5]: 3.43 G/DL | ALKALINE PHOSPHATASE [5]: 257 u/L | ASPARTATE AMINOTRANSFERASE [5]: 54 u/L | BLOOD UREA NITROGEN [5]: 12 mg/dL | CHLORIDE [5]: 103.67 MEQ/L | CHOLESTEROL [5]: 104 mg/dL | CREATINE PHOSPHOKINASE [5]: 162.67 u/L | CREATININE [5]: 0.37 mg/dL | GLUCOSE [5]: 183.67 mg/dL | PHOSPHORUS [5]: 12.7 mg/dL | POTASSIUM [5]: 6.67 MEQ/L | SODIUM [5]: 145.67 MEQ/L | TOTAL BILIRUBIN [5]: 0.33 mg/dL | TOTAL PROTEIN [5]: 5.87 G/DL
